Assay in all cases: NCI tumour cell line growth inhibition, 48 h
Experiment [1] has as its system SF-295 CNS.
Experiment [2] deals with OVCAR-5 ovarian.
Experiment [3] relates to M14 melanoma.
For experiment [4], the system named is LOX IMVI melanoma.
Experiment [5] concerns ACHN renal.
In experiment [6] the test system is SK-MEL-28 melanoma.
Experiment [7] deals with HCT-116 colon.
Experiment [8] has as its system SK-MEL-2 melanoma.
Experiment [9] deals with SNB-19 CNS.
In experiment [10] the test system is 786-0 renal.
Experiment [11] concerns SK-MEL-5 melanoma.
The subject of experiment [12] is HCT-15 colon.
Experiment [13] deals with HS 578T breast.
Experiment [14] relates to IGROV1 ovarian.
The subject of experiment [15] is OVCAR-4 ovarian.
The subject of experiment [16] is UO-31 renal.
Experiment [17] deals with CAKI-1 renal.
Experiment [18] deals with BT-549 breast.
For experiment [19], the system named is MCF7 breast.
Experiment [20] has as its system K-562 leukemia.

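Values below derive from 48-hour exposures of cells grown in 96-well plates, with endpoints linearly interpolated between the two concentrations bracketing the appropriate inhibition level. The concentration for full growth arrest is given as TGI.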

In the case of `O=C1Oc2ccccc2C(=O)/C1=C/N1C(=O)CNC1=S`, the TGI in experiment [1], in [2], in experiment [3], in experiment [4], in experiment [5] and in [6] was over 100 µM in each case. For the same compound, the TGI in [7], in experiment [8], in experiment [9], in experiment [10], in experiment [11] and in [12] was over 100 µM each time. Further, the TGI in experiment [13], in experiment [14], in experiment [15], in [16], in [17] and in [18] was over 100 µM throughout. Moreover, the TGI in [19] and in experiment [20] was over 100 µM in each case.

With `Cc1[nH]c(-c2ccccc2)c2nc(N(C)C)oc(=O)c12`, the TGI in [1], in [2], in [3], in [4], in experiment [5] and in experiment [6] was over 100 µM in each case. Also, the TGI in experiment [7], in experiment [8], in experiment [9], in experiment [10], in [11] and in [12] was over 100 µM in each case. Besides, the TGI in [13], in experiment [14], in [15], in experiment [16], in experiment [17] and in [18] was over 100 µM in each case. In addition, the TGI in experiment [19] and in experiment [20] was over 100 µM throughout.

For `COc1ccc(COCC[C@H](C)OC2OC(CO)C(O)C(O)C2O)cc1` (stereo not given in full), the TGI in [1], in experiment [2], in experiment [3], in experiment [4], in [5] and in experiment [6] was over 100 µM in each case. For the same compound, the TGI in [7], in experiment [8], in [9], in [10], in experiment [11] and in [12] was over 100 µM each time. Also, the TGI in experiment [13], in experiment [14], in experiment [15], in [16], in experiment [17] and in experiment [18] was over 100 µM in each case. Also, the TGI in [19] and in experiment [20] was over 100 µM in each case.

Take `O=C1NC(N/N=C\c2ccccc2)=N/C1=C/c1ccccc1`: the TGI in [1] was over 100 µM; in experiment [2], 44.5 µM; in experiment [3], over 100 µM; in experiment [4], over 100 µM; in experiment [5], 34.5 µM; in [6], over 100 µM. Besides, the TGI in experiment [7] was over 100 µM; in experiment [8], over 100 µM; in experiment [9] it was 73.6 µM; in experiment [10] it was over 100 µM; in [11], over 100 µM; in experiment [12], over 100 µM. Moreover, the TGI in experiment [13] is 80.7 µM; in experiment [14] it was over 100 µM; in experiment [15], 55.9 µM; in experiment [16], over 100 µM; in [17], 87 µM; in experiment [18] it was 71.2 µM. Moreover, the TGI in experiment [19] and in experiment [20] was over 100 µM throughout.

Consider `CN=c1sc2nc(C#N)c(C#N)nc2n1C`, for which the TGI in [1] is 45.5 µM; in experiment [2] it was 51.6 µM; in [3], over 58.9 µM; in experiment [4], 46.5 µM; in [5] it was 60.2 µM; in [6], over 85 µM. The TGI was 36 µM in [7]; 40.7 µM in experiment [8]; over 62.6 µM in [9]; over 60 µM in [10]; 35.4 µM in experiment [11]; 41.2 µM in experiment [12]. Besides, the TGI in experiment [13] is over 100 µM; in experiment [14] it was 53.4 µM; in experiment [15], 49.1 µM; in experiment [16], 51.3 µM; in [17], 60.3 µM; in experiment [18] it was 62.8 µM. For the same compound, the TGI is 38.1 µM in experiment [19] and over 60 µM in [20].

As for `O=C1NC2(CCNCC2)Oc2ccccc21`, the TGI in experiment [1], in [2], in experiment [3], in experiment [4], in experiment [5] and in experiment [6] was over 100 µM each time. The TGI in experiment [7], in experiment [8], in experiment [9], in experiment [10], in experiment [11] and in experiment [12] was over 100 µM each time. For the same compound, the TGI in experiment [13], in experiment [14], in experiment [15], in experiment [16], in experiment [17] and in experiment [18] was over 100 µM throughout. The TGI in experiment [19] and in experiment [20] was over 100 µM each time.

For the origin of these results see PubChem BioAssay (NCI).
